Format in all cases: in vivo
In assay [1] the test system is Brown Planthopper (Nilaparvata lugens). The experiment in a line: Brown planthopper foliar spray assay on rice. As to the method: (§1) A foliar spray assay and a root-uptake systemic assay were performed on both brown planthopper and green leafhopper. Four-week-old rice seedlings were submerged in 3-cm depth of water in the bottom portion (high 5 cm, diameter 3 cm) of a 2-part glass cylinder (high 18 cm, diameter 3 cm). A metal screen was used to hold the seedlings within the bottom portion. Scotch tape was used to bind the two portions of the cylinder after setting up the seedlings. A metal cap was used to cover the cylinder. There were 4 cylinders for each treatment. The test compound was dissolved in acetone to make a 10,000 ppm stock solution. For the foliar spray assay, this stock solution was diluted with water to make 10, 2.5, 0.31, 0.08 and 0.02 ppm test solutions. A volume of 0.5 ml of a test solution or solvent blank as check was sprayed into the glass cylinder. For systemic test, the stock solution was incorporated at final test concentrations of 10, 2.5, 0.31, 0.08 and 0.02 ppm in the water in which rice seedlings were submerged. In both foliar spray and systemic tests, five laboratory-reared 3rd instar nymphs of brown planthopper or green leafhopper were introduced into each cylinder 3 hr after insecticide application. The treated test units were kept in a growth chamber with conditions set as followings: Temperature 28±0.5° C.; Relative humidity 70±0.5%; Photoperiod […].

The test system of assay [2] is Green Leafhopper (Nephotettix sp.). As to the kind of experiment: Green leafhopper root-uptake systemic assay on rice. As to the method: as §1
The subject of assay [3] is Sweet Potato Whitefly (Bemisia tabaci). The experiment in a line: Sweet potato whitefly foliar spray assay on cotton. The note with it: 12 days, live large nymphs. An excerpt:
This test was designed to measure the capability of whitefly eggs and/or young nymphs to develop to large nymphs. Cotton seedlings at the growth stage of one or two expanding true leaf were trimmed so that only the first true leaf remained (cotyledon leaves were also removed). The plants were pre-infested with sweet potato whitefly eggs by keeping plants next to the colony-keeping plants for two days. The infested plants were carefully checked for presence of similar egg density before use in the insecticidal tests. Master solutions of test compounds at 1000 ppm were prepared in acetone:methanol (1:1). The 12.5 ppm spray solutions were then made by diluting 0.188 mL of the master solution with 14.812 ml of 0.025% Tween 20 in water. The lower concentrations were made by diluting the 12.5 ppm spray solution with a diluent consisting 98.75 parts of 0.025% Tween 20 in water and 1.25 parts of acetone:methanol (1:1). The diluent was used as solvent control. The test solutions were sprayed with a hand-held Devilbiss sprayer until runoff to both sides of the infested cotton leaves. Four plants (4 replications) were used for each treatment. Treated plants were held in a holding room for 12 days at approximately 23° C. and 40% RH before evaluation. To evaluate the efficacy of the compounds, the number of live large nymphs in an area of 1 square inch on the lower surface of the treated cotton leaves was counted under a microscope. Insecticidal activity was determined by Corrected % Control using Abbott's correction formula and presented in Table 5: Corrected % Control=100*(X−Y)/X • where X=No. of live large nymphs on solvent check plants • Y=No. of live large nymphs on treated plants

Assay [4] relates to Green Peach Aphid (Myzus persicae). The experiment in a line: Green peach aphid root uptake assay on pepper. The note with it: 3 days after infestation. As to the method: Systemic activity of compound 2 against green peach aphid was evaluated in a root uptake assay. Bell peppers (Capsicum annum var. California Wonder) was used as test plant seeded and grown in rock wool plugs. Plants were grown to expanding 1st true leaf stage. The rock wool plugs containing individual plants were placed in 1-ounce cups and surrounded with white clean sand. Five plants were used for each treatment. Stock solution of 1000 ppm was made by dissolving 2 mg of technical test compound in 2 mL acetone. The highest test concentration (10 ppm, 0.05 mg/5 ml) was prepared by diluting 0.32 mL stock solution with 1.6 mL acetone and 30.08 mL DI water, containing 6% acetone. Lower test concentrations were prepared by sequentially diluting 6.5 mL higher concentration (start from the 10 ppm test solution) with 26.0 ml acetone:DI water (6:94). A volume of 5 mL was applied to each cup (each plant). Use 6% acetone in water as solvent check. After insecticide application, the seedlings were infested with green peach aphids and held in a growth chamber (25° C., 50 R.H, 16 hr light: 8 hr drak). Number of live aphid on each plant was counted at 3 days after infestation. Calculations for % control were based on a corrected basis compared to the populations on the solvent check plants. Corrected % Control=100*(X−Y)/X • where X=No. of live aphids on solvent check plants • Y=No. of live aphids on treated plants The Corrected % Control values from lower test rates are given in Table 6.

Assay [5] has as its system Cat Flea (Ctenocephalides felis). The experiment in a line: Cat flea filter wool assay. Particulars: 48-hour observation. As to the method: Compound 2 was evaluated in a dose response series to establish the range of activity of the test compound. Technical material was dissolved in acetone and diluted with the same solvent to obtain the test concentrations. Bioassays were conducted by treating polyester aquarium filter wool with 1.0 ml of the test solution, thoroughly saturating the substrate and allowing it to dry for at least 1 hour. The dry filter wool was then placed into 10 cm plastic Petri dishes and covered with the lid. Each treatment was replicated 5 times. Approximately 15 unfed cat flea adults were placed into each replicate of each dosage being evaluated. Mortality was assessed at 2, 8, 24 and 48 hours after introduction of the fleas into the test system. The mean percent mortality for each dosage group and time interval was determined and results from the 48-hour observation are presented in Table 9.

A word on the mortality: it is the percentage killed. Low values mean a weak lethal effect, high ones a strong lethal effect.

For the compound `CC(c1ccc(C(F)(F)F)nc1)S(C)(=O)=NC#N` (stereo not drawn) [Compound 2, [1-(6-trifluoromethylpyridin-3-yl)ethyl](methyl)-oxido-λ^4-sulfanylidenecyanamide], the “% Control at ppm against brown planthopper” value is reported as “F (Less than 50)” in assay [1] (0.02 ppm); “E (50-59)” in assay [1] (0.08 ppm); “A (90-100)” in assay [1] (0.31 ppm); “A (90-100)” in assay [1] (2.5 ppm); “A (90-100)” in assay [1] (10 ppm). For the same compound, the “% Control at ppm against green leafhopper” value is “D (60-69)” in assay [2] (0.02 ppm in water); “B (80-89)” in assay [2] (0.08 ppm in water); “A (90-100)” in assay [2] (0.31 ppm in water); “A (90-100)” in assay [2] (2.5 ppm in water); “A (90-100)” in assay [2] (10 ppm in water). The “% Control at ppm, foliar spray, sweet potato whitefly on cotton” value in assay [3] (0.781 ppm) turned out to be 80%; in assay [3] (3.125 ppm), 94%; in assay [3] (12.500 ppm), 100%. The “% Control, root uptake systemic, green peach aphid on pepper” value in assay [4] (0.08 ug/plant) turned out to be 61%; in assay [4] (0.4 ug/plant), 95%; in assay [4] (2 ug/plant), 100%; in assay [4] (10 ug/plant), 100%. In addition, the mortality at 5 ppm in assay [5] (5 ppm) worked out at 18%. In addition, the mortality at 50 ppm in assay [5] (50 ppm) worked out at 25%. Further, in assay [5] (500 ppm), the mortality at 500 ppm amounted to 40%. In addition, the mortality at 5000 ppm in assay [5] (5,000 ppm) amounted to 57%.

Values taken from US8193364B2, “Insecticidal N-substituted (6-haloalkylpyridin-3-yl)-alkyl sulfoximines” (Dow AgroSciences, LLC., priority 2006, dated 2012).
